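Assay format: 96-well plates, 48-hour exposure. TGI marks complete inhibition of growth.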
Legend:
Assay in all cases: DTP human tumour cell line panel, 48 h
HCC-2998 colon = test system: HCC-2998 colon
OVCAR-5 ovarian = test system: OVCAR-5 ovarian
HCT-15 colon = test system: HCT-15 colon
A498 renal = test system: A498 renal
EKVX NSCLC = test system: EKVX NSCLC
SR leukemia = test system: SR leukemia
RPMI-8226 leukemia = test system: RPMI-8226 leukemia
IGROV1 ovarian = test system: IGROV1 ovarian
DU-145 prostate = test system: DU-145 prostate
LOX IMVI melanoma = test system: LOX IMVI melanoma
K-562 leukemia = test system: K-562 leukemia
SNB-75 CNS = test system: SNB-75 CNS
SNB-19 CNS = test system: SNB-19 CNS
OVCAR-8 ovarian = test system: OVCAR-8 ovarian
M14 melanoma = test system: M14 melanoma
A549 NSCLC = test system: A549 NSCLC
SK-MEL-28 melanoma = test system: SK-MEL-28 melanoma

| Compound | TGI (HCC-2998 colon) | TGI (OVCAR-5 ovarian) | TGI (HCT-15 colon) | TGI (A498 renal) | TGI (EKVX NSCLC) | TGI (SR leukemia) | TGI (RPMI-8226 leukemia) | TGI (IGROV1 ovarian) | TGI (DU-145 prostate) | TGI (LOX IMVI melanoma) | TGI (K-562 leukemia) | TGI (SNB-75 CNS) | TGI (SNB-19 CNS) | TGI (OVCAR-8 ovarian) | TGI (M14 melanoma) | TGI (A549 NSCLC) | TGI (SK-MEL-28 melanoma) |
| --- | --- | --- | --- | --- | --- | --- | --- | --- | --- | --- | --- | --- | --- | --- | --- | --- | --- |
| CCN(CC)CCS(=O)c1c2cc(OC)ccc2nc2ccc(OC)cc12 (stereo not given) | 40.7 µM | 36.1 µM | 16.6 µM | 33.1 µM | 30.8 µM | > 23.7 µM | 7.11 µM | 8.52 µM | 4.04 µM | > 42.9 µM | > 25.7 µM | 36 µM | 72 µM | 21 µM | 26.3 µM | 55.3 µM | 34.4 µM |
| C=C1C(=O)C23CC1C[C@H](OC(C)=O)C2C1(C)C(OC(C)=O)C[C@H](O)C(C)(C)[C@H]1C(O)[C@@H]3OC(C)=O (stereo not given in full) | 36.9 µM | 28.8 µM | 25.7 µM | 28.4 µM | 29.1 µM | 27.4 µM | 16.4 µM | 30.6 µM | 33.2 µM | 30.3 µM | 10.9 µM | 36.3 µM | 44.3 µM | 22 µM | 18.7 µM | 48.8 µM | 24.4 µM |
| CC(=O)CCC[C@@H](C)[C@@H]1O[C@H]([C@@]2(C)CCC(=O)O2)C[C@H]2C(CSc3ccccc3)C(=O)O[C@@H]12 (stereo not given in full) | 29.2 µM | 32.4 µM | 47.3 µM | > 88.9 µM | 24.3 µM | > 100 µM | 52.1 µM | > 38 µM | 29.1 µM | 38.2 µM | > 100 µM | > 59.4 µM | > 100 µM | > 50.8 µM | 26.8 µM | 44.1 µM | 41.7 µM |
| NC1=NC(OCC2(CO)CCC2)C=C(NCC2(CO)CCC2)N1 (stereo not given) | > 100 µM | > 100 µM | > 100 µM | > 100 µM | > 100 µM | > 100 µM | > 100 µM | > 100 µM | > 100 µM | > 100 µM | > 100 µM | > 100 µM | > 100 µM | > 100 µM | > 100 µM | > 100 µM | > 100 µM |
| O=C1CC2(CCC(O)(c3ccc(Cl)cc3)C(C(=O)c3ccc(Cl)cc3)C2)C(=O)c2ccccc2N1 (stereo not given) | > 100 µM | > 100 µM | > 100 µM | 52.6 µM | > 48.6 µM | > 100 µM | > 100 µM | > 52.1 µM | > 36.8 µM | > 86.8 µM | > 100 µM | 3.82 µM | 6.71 µM | > 62.4 µM | > 100 µM | > 50.8 µM | 20.6 µM |
| CC(=O)O[C@H]1C(=O)[C@@]2(C)[C@H]([C@H](OC(=O)C3CCCCC3)[C@]3(O)C[C@H](OC(=O)[C@H](O)[C@@H](NC(=O)C4CCCCC4)C4CCCCC4)C(C)=C1C3(C)C)[C@]1(OC(C)=O)CO[C@@H]1C[C@@H]2O | 0.27 µM | 0.121 µM | 4.42 µM | 6.6 µM | 25 µM | 9.67 µM | 3.67 µM | 6.77 µM | 2.27 µM | 5.03 µM | 8.96 µM | 1.12 µM | 13.3 µM | 5.12 µM | 1.2 µM | 20.9 µM | 8.55 µM |
| CC1C[C@]2(C)C(=S)Nc3ccccc3[C@@H]2Nc2ccccc21 (stereo not given in full) | 40.6 µM | 43.5 µM | 50.8 µM | 36.3 µM | 57.5 µM | > 100 µM | > 100 µM | 40.3 µM | 17.5 µM | 28.5 µM | > 100 µM | 61 µM | 57.4 µM | 29.5 µM | 32.4 µM | 37.8 µM | 12.7 µM |
| O=S1(=O)CCN(Cc2ccccc2)/C1=N\S(=O)(=O)c1ccc(Cl)cc1 | 34.5 µM | 33.4 µM | 37 µM | 73.5 µM | 28.5 µM | 59.9 µM | 79 µM | 32.5 µM | 35.3 µM | 33.5 µM | > 100 µM | 50.9 µM | > 100 µM | 32.9 µM | 32.9 µM | > 100 µM | 32.8 µM |
| O=c1c2cccnc2nc2ccc3c[nH][nH]c3c12 | > 10 µM | > 10 µM | > 10 µM | > 10 µM | > 10 µM | 9.14 µM | > 10 µM | > 10 µM | > 10 µM | > 10 µM | > 10 µM | > 10 µM | > 10 µM | > 10 µM | > 10 µM | > 10 µM | > 10 µM |
| CNC(=O)c1n[nH][nH]c1=O | > 100 µM | > 100 µM | > 100 µM | > 100 µM | > 100 µM | > 100 µM | > 100 µM | > 100 µM | > 100 µM | > 100 µM | > 100 µM | > 100 µM | > 100 µM | > 100 µM | > 100 µM | > 100 µM | > 100 µM |

Source: PubChem BioAssay (NCI)
